Like-named read-outs stand apart in the source and are kept apart here.

For data set [1], the target named is Lactobacillus plantarum phosphoketolase. To be noted: cited from earlier work.
Data set [2] concerns Bifidobacterium animalis ATCC 25527 phosphoketolase. To be noted: Grill et al. (1995), cited from earlier work.
For data set [3], the target named is T1, Bifidobacterium longum phosphoketolase (B. longum PKL), SEQ ID NO: 4 (encoded by SEQ ID NO:3) (Bifidobacterium longum, UniProt A0ACD7USP0).
T1 sequence (A0ACD7USP0 1-825): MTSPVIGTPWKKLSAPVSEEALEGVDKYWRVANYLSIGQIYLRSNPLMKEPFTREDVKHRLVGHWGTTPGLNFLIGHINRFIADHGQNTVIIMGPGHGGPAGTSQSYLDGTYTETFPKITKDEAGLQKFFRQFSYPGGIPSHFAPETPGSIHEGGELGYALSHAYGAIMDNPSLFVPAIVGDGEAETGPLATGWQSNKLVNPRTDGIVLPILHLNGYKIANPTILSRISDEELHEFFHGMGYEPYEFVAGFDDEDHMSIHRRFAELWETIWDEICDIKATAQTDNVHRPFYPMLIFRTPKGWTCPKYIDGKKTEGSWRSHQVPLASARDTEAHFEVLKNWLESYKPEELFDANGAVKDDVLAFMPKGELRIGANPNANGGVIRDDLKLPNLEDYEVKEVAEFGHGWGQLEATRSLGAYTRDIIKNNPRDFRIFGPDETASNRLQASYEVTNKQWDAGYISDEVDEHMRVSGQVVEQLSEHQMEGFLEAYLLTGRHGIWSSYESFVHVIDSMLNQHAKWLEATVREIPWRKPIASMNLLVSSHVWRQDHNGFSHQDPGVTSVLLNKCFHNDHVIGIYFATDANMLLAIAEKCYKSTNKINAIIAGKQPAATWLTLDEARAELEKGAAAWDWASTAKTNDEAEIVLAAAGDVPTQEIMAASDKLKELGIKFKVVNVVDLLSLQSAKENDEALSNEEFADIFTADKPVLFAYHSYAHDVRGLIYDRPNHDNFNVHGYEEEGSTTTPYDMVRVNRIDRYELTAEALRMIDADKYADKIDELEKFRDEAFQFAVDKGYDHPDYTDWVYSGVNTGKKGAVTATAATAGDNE
Particulars: 37° C., pH 6, saturating Pi (20 mM), enzyme 0.25 μM, time measured 60.

Data set [4] relates to Enterococcus gallinarum phosphoketolase (E. gallinarum PKL), encoded by SEQ ID NO:17. In words: Kinetic analysis of purified E. gallinarum phosphoketolase (ferric hydroxamate assay, AcP formation). The format is biochemical. The procedure:
The amino acid sequence of Enterococcus gallinarum PKL was obtained from GeneBank and was processed in GeneArt optimization software for optimized expression in E. coli. Two base pairs were added in front of the PKL gene to form a NcoI site and a Sad site was inserted just after the stop codon. The synthesized PKL gene was cloned into GeneArt kanamycin-resistant cloning plasmid. The E. gallinarum PKL gene (SEQ ID NO:17) was then subcloned into a BspHI/SacI-digested pTrcHis2B vector (Life Technologies, Carlsbad, Calif.) to form plasmid pCMP1321.
Cells were grown in LB medium with 50 ug/ml carbenecillin at 37 C prior to induction. […] For purification, E. gallinarum PKL cell pellets were resuspended in 50 mM MES pH 6.0, 50 mM NaCL, 0.5 mM AEBSF, 0.1 mg/ml DNaseI. […] Clarified lysate containing PKL from E. gallinarum was loaded onto a DEAE HiTrap FF column equilibrated in 50 mM MES, 50 mM NaCl, pH 6 and eluted with a gradient to 50 mM MES, 1M NaCl, pH 6. The resulting fractions were analyzed by SDS-PAGE. Fractions containing PKL were pooled and desalted using a G25 desalting column into 50 mM MES, 50 mM NaCL pH 6.0. Further purification was achieved using a MonoQ 10/100 GL column equilibrated in 50 mM MES, 50 mM NaCL, pH 6 with a salt gradient to 1M NaCl. Fractions containing PKL were pooled and analyzed by SDS PAGE, quantitation was achieved using A280 a molar extinction coefficient of 136980 determined by Vector NTI.
Time points were taken at various intervals. […] An AcP standard curve ranging between 12.5 and 0.2 mM was generated for quantitation.

In data set [5] the test system is Bifidobacterium breve phosphoketolase. To be noted: cited from earlier work.
Data set [6] deals with Leuconostoc oenos phosphoketolase. Particulars: Veiga-da-Cunha et al. (1993), cited from earlier work.
Data set [7] deals with Bifidobacterium dentium ATCC27534 phosphoketolase. Particulars: Grill et al. (1995), cited from earlier work.
The subject of data set [8] is Bifidobacterium globosum ATCC 25864 phosphoketolase. To be noted: Grill et al. (1995), cited from earlier work.
Data set [9] concerns Bifidobacterium lactis phosphoketolase. To be noted: Meile et al. (2001), cited from earlier work.
Data set [10] deals with Lactobacillus paraplantarum C7 phosphoketolase. Particulars: Jeong et al. (2007), cited from earlier work.
For data set [11], the system named is Bifidobacterium longum BB536 phosphoketolase. Particulars: Grill et al. (1995), cited from earlier work.
Substrate in data set [12]: O=P(O)(O)OC[C@H]1OC(O)(CO)[C@@H](O)[C@@H]1O
Description: purified protein, by the assay type. Particulars: other: 37° C., pH 6, saturating Pi (20 mM), enzyme 0.25 μM, time measured 60.

[13] abbreviates: 37° C., pH 6, saturating Pi (20 mM), enzyme 0.5 μM, time measured 30.

Regarding `O=C[C@H](O)[C@H](O)COP(=O)(O)O` [E4P, erythrose 4-phosphate], the Ki is 8 mM in [1] (for F6P as a substrate, read-out: Kis^E4P) and 4.4 mM in data set [1] (for F6P as a substrate, read-out: Kll^E4P).
Turning to `O=P(O)(O)OC[C@H]1OC(O)(CO)[C@@H](O)[C@@H]1O` (stereo partly drawn) [F6P, fructose 6-phosphate], the “kcat (F6P)” value in [2] is “kcat (F6P) = 33 s^−1”; in data set [5] (Suzuki et al. (2010)) it was “kcat (F6P) = 22.4 s^−1”; in data set [6] it was “kcat (F6P) = 0.2 s−1”; in [7] it was “kcat (F6P) = 33 s^−1”; in data set [8], “kcat (F6P) = 40 s^−1”; in data set [1] (Yevenes and Frey (2008)) it was “kcat(F6P) = 2.7 s^−1”. Further, the “kcat (F6P)” value was “kcat(F6P) = 8 s^−1” in [9], “kcat(F6P) = 738 s^−1” in data set [10] and “kcat (F6P) = 39 s^−1” in [11]. In addition, the Km in data set [2] (read-out: Km(F6P)) is 11.5 mM; in data set [4] (setting [13]), 2.86 mM; in data set [5] (read-out: Km(F6P), Suzuki et al. (2010)) it was 9.7 mM; in data set [6] (read-out: Km(F6P)), 22 mM; in data set [7] (read-out: Km(F6P)) it was 23 mM; in [8] (read-out: Km(F6P)), 12.5 mM. Further, the Km in [1] (read-out: Km(F6P), Yevenes and Frey (2008)) was 24 mM; in [9] (read-out: Km(F6P)) it was 10 mM; in [10] (read-out: Km(F6P)), 5.1 mM; in data set [11] (read-out: Km(F6P)), 26 mM. Also, the kcat in data set [3] turned out to be 16.6 s⁻¹; in [4] (setting [13]) it was 1.4 s⁻¹; in data set [4] (saturating Pi), 1.4 s⁻¹. Also, the Vmax in [4] (setting [13]) was 0.71 µM/s.
Turning to `O=P(O)(O)O` [Pi, inorganic phosphate], the Km in data set [5] (for F6P as a substrate, read-out: KmPi) was 1.2 mM; in data set [1] (for F6P as a substrate, read-out: Km(Pi)) it was 2.9 mM; in [1] (for X5P as a substrate, read-out: Km(Pi)) it was 7.5 mM.
Turning to `O=C(CO)[C@@H](O)[C@H](O)COP(=O)(O)O` [X5P, xylulose 5-phosphate], the Km was 5.81 mM in data set [4] (setting [13]); 1.6 mM in data set [6] (read-out: Km(X5P)); 3.6 mM in data set [1] (Yevenes and Frey (2008), read-out: Km(X5P)); 55 mM in data set [9] (read-out: Km(X5P)). For the same molecule, the maximal velocity (Vmax) in data set [4] (setting [13]) was 2.18 µM/s. Besides, the kcat in data set [4] (setting [13]) and in data set [4] (saturating Pi) was 4.4 s⁻¹ each time. Besides, the “kcat(X5P)” value in data set [5] (Suzuki et al. (2010)) is on record as “kcat (X5P) = 44.8 s^−1”; in data set [6], “kcat (X5P) = 3.5 s^−1”; in data set [1] (Yevenes and Frey (2008)), “kcat(X5P) = 6.1 s^−1”; in data set [9] it was “kcat(X5P) = 42 s^−1”.

B1: Bifidobacterium longum phosphoketolase (B. longum PKL), SEQ ID NO: 4 (encoded by SEQ ID NO:3) (Bifidobacterium longum subsp. infantis ATCC 15697 = JCM 1222 = … (protein)
chain: MTSPVIGTPWKKLSAPVSEEALEGVDKYWRVANYLSIGQIYLRSNPLMKEPFTREDVKHRLVGHWGTTPGLNFLIGHINRFIADHGQNTVIIMGPGHGGPAGTSQSYLDGTYTETFPKITKDEAGLQKFFRQFSYPGGIPSHFAPETPGSIHEGGELGYALSHAYGAIMDNPSLFVPAIVGDGEAETGPLATGWQSNKLVNPRTDGIVLPILHLNGYKIANPTILSRISDEELHEFFHGMGYEPYEFVAGFDDEDHMSIHRRFAELWETIWDEICDIKATAQTDNVHRPFYPMLIFRTPKGWTCPKYIDGKKTEGSWRSHQVPLASARDTEAHFEVLKNWLESYKPEELFDANGAVKDDVLAFMPKGELRIGANPNANGGVIRDDLKLPNLEDYEVKEVAEFGHGWGQLEATRSLGAYTRDIIKNNPRDFRIFGPDETASNRLQASYEVTNKQWDAGYISDEVDEHMRVSGQVVEQLSEHQMEGFLEAYLLTGRHGIWSSYESFVHVIDSMLNQHAKWLEATVREIPWRKPIASMNLLVSSHVWRQDHNGFSHQDPGVTSVLLNKCFHNDHVIGIYFATDANMLLAIAEKCYKSTNKINAIIAGKQPAATWLTLDEARAELEKGAAAWDWASTAKTNDEAEIVLAAAGDVPTQEIMAASDKLKELGIKFKVVNVVDLLSLQSAKENDEALSNEEFADIFTADKPVLFAYHSYAHDVRGLIYDRPNHDNFNVHGYEEEGSTTTPYDMVRVNRIDRYELTAEALRMIDADKYADKIDELEKFRDEAFQFAVDKGYDHPDYTDWVYSGVNTGKKGAVTATAATAGDNE
As for B1, in data set [12], the Km worked out at 21.16 mM, the Vmax amounted to 265 µM/min and the kcat was determined as 16.6 s⁻¹.

Source of the values: US10113185B2, “Utilization of phosphoketolase in the production of mevalonate, isoprenoid precursors, and isoprene” (Danisco US Inc., priority 2011, dated 2018).
